Where “and” joins values, the source holds several entries; their conditions need not be identical. Identical values can stand only once. Like-named read-outs stand apart in the source and are kept apart here.
System: human conjunctival tissue mast cells
Experiment: Inhibition of anti-IgE induced histamine release from human conjunctival tissue mast cells (HCTMC)
Format: cell-based
Experimental: Methods detailing preparation of mono-dispersed HCTMC and mediator release studies with these cells have been described (U.S. Pat. No. 5,360,720 and Miller et al, Ocular Immunology and Inflammation, 4(1):39-49 (1996)). Briefly, human conjunctival tissue mast cells were isolated from post-mortem tissue donors obtained within 8 hours of death by various eye banks and transported in Dexsol® corneal preservation medium, or equivalent. Tissues were enzymatically digested by repeated exposure (30 min. at 37° C.) to collagenase and hyaluronidase (2× with 200 U each/gram tissue, then 2-4 × with 2000 U each/gram tissue) in Tyrode's buffer containing 0.1% gelatin. (Tyrode's buffer (in mM): 137 NaCl, 2.7 KCl, 0.35 NaH2PO4, 1.8 CaCl2, 0.98 MgCl2, 11.9 NaHCO3, and 5.5 glucose). Each digestion mixture was filtered over Nitex® cloth (100 μm mesh, Tetko, Briarcliff Manor, N.Y.) and washed with an equal volume of buffer. Filtrates were centrifuged at 825×g (7 min). Pellets were resuspended in buffer then combined for enrichment over a […] Percoll® cushion. The enriched pellet was washed, resuspended in supplemented RPMI 1640 medium and incubated at 37° C. to equilibrate.
Cells were harvested from the culture plate and counted for viability (trypan blue exclusion) and mast cell number (toluidine blue O). Mast cells (5000/tube; 1 mL final volume) were challenged (37° C.) for 15 min with goat-anti-human IgE (10 μg/mL) following treatment (15 minutes; 37° C.) with test drug or Tyrode's buffer. Total and non-specific release controls were exposed to 0.1% Triton X-100 and goat IgG (10 μg/mL), respectively. The reaction was terminated by centrifugation (500×g, 4° C., 10 min). Supernatants were stored at −20° C. until analyzed for histamine content by RIA (Beckman Coulter, Chicago, Ill.).
All test drugs were made to solution immediately prior to use. Each was dissolved in DMSO at 10 mM or greater concentration and then diluted in Tyrode's buffer containing 0.1% gelatin over the concentration for evaluation.
Inhibition of histamine release was determined by direct comparison of with anti-IgE challenged mast cells using Dunnett's t-test (Dunnett, “A multiple comparison procedure for comparing treatments with a control”, J. Amer. Stat. Assoc. (1955), 50:1096-1121).

[1] = Homo sapiens, Mast cell, bracketed value, apparently the mean of the individual determinations in the same cell, read-out: IC50(nM), value in square brackets
[2] = goat-anti-human IgE 10 μg/mL challenge 15 min after 15 min drug treatment, individual determinations (values outside brackets), read-out: IC50

Row | IC50 [1] | IC50 [2] | IC50 (Homo sapiens, Mast cell, 0.25 h, goat-anti-human IgE 10 μg/mL challenge 15 min after 15 min drug treatment, individual determinations (values outside brackets), read-out: IC50) | Structure (SMILES)
1 | 282 nM | – | – | CNC(=O)c1ccccc1SSc1ccccc1C(=O)NC [Compound 4]
2 | 122 nM | 107 nM and 219 nM and 229 nM and 84 nM and 71 nM | – | CC(O)CNC(=O)c1ccccc1SSc1ccccc1C(=O)NCC(C)O (stereo not drawn) [Compound 5]

The next lines start with the compound.

Row | Structure (SMILES) | IC50 [1] | IC50 [2] | IC50 (Homo sapiens, Mast cell, 0.25 h, goat-anti-human IgE 10 μg/mL challenge 15 min after 15 min drug treatment, individual determinations (values outside brackets), read-out: IC50)
3 | O=C(NCCCN1CCOCC1)c1ccccc1SSc1ccccc1C(=O)NCCCN1CCOCC1 [Compound 2] | 105 nM | 78 nM and 199 nM and 39 nM | –
4 | C=CCNC(=O)c1ccccc1SSc1ccccc1C(=O)NCC=C [Compound 3] | 148 nM | – | –
5 | CNC(=O)c1cccc(SSc2cccc(C(=O)NC)c2)c1 [Compound 6] | 312 nM | 222 nM | 402 nM
